For orientation: Ki means a dissociation constant, usually derived from enzyme kinetics or from competition with a known ligand.

“And” between values parts separate entries of the source, which are not always exact repeats. Identical values can stand only once.

Here are results for 32 molecules from patent publication US8575183B2, “Heterocyclic compounds and their uses” (priority 2010, dated 2013).

This test deals with T1, PI3k δ (Homo sapiens, UniProt O00329).
T1 construct: Full length p110 subunits of PI3k α, β and δ; polyHis (N); made in house; host or cells: Sf9 insect cells (baculovirus)
The experiment in a line: biochemical. The class given is biochemical. The conditions noted are these: read-out: PI3k δ Ki. The protocol:
Full length p110 subunits of PI3k α, β and δ, N-terminally labeled with polyHis tag, were coexpressed with p85 with Baculo virus expression vectors in sf9 insect cells. P110/p85 heterodimers were purified by sequential Ni-NTA, Q-HP, Superdex-100 chromatography. Purified α, β and δ isozymes were stored at −20° C. in 20 mM Tris, pH 8, 0.2M NaCl, 50% glycerol, 5 mM DTT, 2 mM Na cholate. […] The γ isozyme was purified by sequential Ni-NTA, Superdex-200, Q-HP chromatography. The γ isozyme was stored frozen at −80° C. in NaH2PO4, pH 8, 0.2M NaCl, 1% ethylene glycol, 2 mM β-mercaptoethanol.
Phospatidyl inositol phosphoacceptor, Ptdlns(4,5)P2 P4508, was from Echelon Biosciences. […] Test compounds were dissolved in dimethyl sulfoxide and diluted with three-fold serial dilutions. The compound in DMSO (1 μL) was added per test well, and the inhibition relative to reactions containing no compound, with and without enzyme was determined. After assay incubation at rt, the reaction was stopped and residual ATP determined by addition of an equal volume of a commercial ATP bioluminescence kit (Perkin Elmer EasyLite) according to the manufacturer's instructions, and detected using a AnalystGT luminometer.

T1 sequence (O00329 whole entry): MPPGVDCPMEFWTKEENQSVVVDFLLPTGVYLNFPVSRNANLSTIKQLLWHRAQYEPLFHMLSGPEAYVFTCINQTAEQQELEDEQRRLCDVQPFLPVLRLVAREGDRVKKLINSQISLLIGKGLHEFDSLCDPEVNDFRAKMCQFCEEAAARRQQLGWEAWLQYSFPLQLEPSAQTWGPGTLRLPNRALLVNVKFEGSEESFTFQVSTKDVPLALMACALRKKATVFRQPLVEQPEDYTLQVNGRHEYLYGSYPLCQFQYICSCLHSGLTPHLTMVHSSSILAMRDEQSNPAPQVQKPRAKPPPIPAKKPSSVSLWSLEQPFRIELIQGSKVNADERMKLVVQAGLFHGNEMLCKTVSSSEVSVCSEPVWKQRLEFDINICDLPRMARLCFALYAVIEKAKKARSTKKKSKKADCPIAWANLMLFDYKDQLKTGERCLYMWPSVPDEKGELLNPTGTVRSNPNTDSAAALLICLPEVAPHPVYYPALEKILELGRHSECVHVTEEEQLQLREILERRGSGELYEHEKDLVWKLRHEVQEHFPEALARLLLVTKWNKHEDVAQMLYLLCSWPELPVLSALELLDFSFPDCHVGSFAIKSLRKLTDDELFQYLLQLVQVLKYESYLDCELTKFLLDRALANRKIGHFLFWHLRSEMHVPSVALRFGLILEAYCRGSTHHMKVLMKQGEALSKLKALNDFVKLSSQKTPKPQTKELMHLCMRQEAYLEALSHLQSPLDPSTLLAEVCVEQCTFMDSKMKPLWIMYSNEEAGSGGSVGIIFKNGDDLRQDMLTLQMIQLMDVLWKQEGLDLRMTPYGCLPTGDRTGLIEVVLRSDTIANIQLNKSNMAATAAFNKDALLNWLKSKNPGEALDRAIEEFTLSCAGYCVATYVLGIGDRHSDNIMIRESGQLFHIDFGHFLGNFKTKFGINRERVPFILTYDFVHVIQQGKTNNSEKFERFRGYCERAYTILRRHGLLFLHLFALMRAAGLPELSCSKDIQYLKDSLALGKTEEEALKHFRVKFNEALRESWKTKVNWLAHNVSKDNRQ
T1 sequence (P27986 whole entry partner): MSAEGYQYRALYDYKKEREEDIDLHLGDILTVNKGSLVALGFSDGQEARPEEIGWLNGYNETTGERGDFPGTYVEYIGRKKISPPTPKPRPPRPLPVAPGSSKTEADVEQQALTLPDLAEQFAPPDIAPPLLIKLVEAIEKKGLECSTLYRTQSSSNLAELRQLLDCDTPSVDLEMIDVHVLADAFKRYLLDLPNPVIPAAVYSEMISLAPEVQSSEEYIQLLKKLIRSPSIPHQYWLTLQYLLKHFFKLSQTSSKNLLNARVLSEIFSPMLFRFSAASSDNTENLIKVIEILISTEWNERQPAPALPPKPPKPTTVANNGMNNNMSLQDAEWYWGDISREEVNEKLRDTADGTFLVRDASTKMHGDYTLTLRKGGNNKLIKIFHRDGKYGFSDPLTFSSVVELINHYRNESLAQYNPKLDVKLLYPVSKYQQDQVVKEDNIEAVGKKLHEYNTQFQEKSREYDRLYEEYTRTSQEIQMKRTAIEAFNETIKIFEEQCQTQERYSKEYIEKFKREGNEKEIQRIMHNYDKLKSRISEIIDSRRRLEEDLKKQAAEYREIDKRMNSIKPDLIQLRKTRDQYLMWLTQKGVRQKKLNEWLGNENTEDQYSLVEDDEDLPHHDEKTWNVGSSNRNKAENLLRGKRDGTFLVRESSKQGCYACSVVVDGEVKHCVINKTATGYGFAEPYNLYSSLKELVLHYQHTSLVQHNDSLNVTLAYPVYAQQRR

`C[C@H](Nc1ncnc(N)c1C#N)c1nc2ccc(F)cc2n1CC1CC1` [4-amino-6-(((1S)-1-(1-(cyclopropylmethyl)-6-fluoro-1H-benzimidazol-2-yl)ethyl)amino)-5-pyrimidinecarbonitrile]: the Ki was 3.1 nM.
For `CNC(=O)c1cccc2nc([C@H](C)Nc3ncnc(N)c3-c3ccc(S(C)(=O)=O)cc3)n(C3CC3)c12` [2-((1S)-1-((6-amino-5-(4-(methylsulfonyl)phenyl)-4-pyrimidinyl)amino)ethyl)-1-cyclopropyl-N-methyl-1H-benzimidazole-7-carboxamide], the Ki amounted to 10.5 nM.
For `C[C@@H](Nc1ncnc(N)c1C#N)c1nc2c(F)cc(F)cc2n1-c1cccnc1` [4-amino-6-(((1R)-1-(4,6-difluoro-1-(3-pyridinyl)-1H-benzimidazol-2-yl)ethyl)amino)-5-pyrimidinecarbonitrile], the Ki was 1290 nM.
Take `C[C@H](Nc1ncnc(N)c1C#N)c1nc2cccc(Br)c2n1-c1cncc(F)c1` [4-amino-6-(((1S)-1-(7-bromo-1-(5-fluoro-3-pyridinyl)-1H-benzimidazol-2-yl)ethyl)amino)-5-pyrimidinecarbonitrile]: the inhibition constant (Ki) was found to be 48.1 nM.
As for `C[C@H](Nc1ncnc(N)c1C#N)c1nc2cccc(C#N)c2n1-c1cncc(F)c1` [2-((1S)-1-((6-amino-5-cyano-4-pyrimidinyl)amino)ethyl)-1-(5-fluoro-3-pyridinyl)-1H-benzimidazole-7-carbonitrile], the Ki was determined as 171 nM.
With `CNC(=O)c1cccc2nc([C@H](C)Nc3ncnc(N)c3C(F)(F)F)n(C3CC3)c12` [2-((1S)-1-((6-amino-5-(trifluoromethyl)-4-pyrimidinyl)amino)ethyl)-1-cyclopropyl-N-methyl-1H-benzimidazole-7-carboxamide] the figure was 37 nM; with `CNC(=O)c1cccc2nc([C@H](C)Nc3ncnc(N)c3C#N)n(-c3cncc(F)c3)c12` [2-((1S)-1-((6-amino-5-cyano-4-pyrimidinyl)amino)ethyl)-1-(5-fluoro-3-pyridinyl)-N-methyl-1H-benzimidazole-7-carboxamide], 10.2 nM.
For `C[C@H](Nc1ncnc(N)c1C#N)c1nc2cccc(F)c2[nH]1` [4-amino-6-(((1S)-1-(7-fluoro-1H-benzimidazol-2-yl)ethyl)amino)-5-pyrimidinecarbonitrile] the value was 173 nM.
For `CC(Nc1ncnc(N)c1C#N)c1sc2ccccc2c1-c1cc(F)cc(F)c1` (centres unmarked) [4-amino-6-((1-(3-(3,5-difluorophenyl)-1-benzothiophen-2-yl)ethyl)amino)-5-pyrimidinecarbonitrile], the Ki turned out to be 3.33 nM.
For `CC[C@H](Nc1ncnc2[nH]cnc12)c1nc2cccc(C(F)(F)F)c2n1CC1CC1` [N-((1S)-1-(1-(cyclopropylmethyl)-7-(trifluoromethyl)-1H-benzimidazol-2-yl)propyl)-9H-purin-6-amine] the value was 100 nM; for `N#Cc1c(N)ncnc1NCc1nc2c(Cl)cccn2c1-c1ccccc1` [4-amino-6-(((8-chloro-3-phenylimidazo[1,2-a]pyridin-2-yl)methyl)amino)-5-pyrimidinecarbonitrile], 230 nM.
For the molecule `C[C@H](Nc1ncnc(N)c1C#N)c1nc2cccc(C(=O)NC3CC3)n2c1-c1ccccc1` [2-((1S)-1-((6-amino-5-cyano-4-pyrimidinyl)amino)ethyl)-N-cyclopropyl-3-phenylimidazo[1,2-a]pyridine-5-carboxamide], the inhibition constant (Ki) amounted to 17.4 nM.
For the molecule `C[C@H](Nc1ncnc(N)c1C#N)c1nc2ccc(F)cn2c1-c1ccc(Cl)cc1` [4-amino-6-(((1S)-1-(3-(4-chlorophenyl)-6-fluoroimidazo[1,2-a]pyridin-2-yl)ethyl)amino)-5-pyrimidinecarbonitrile], the Ki was 25.1 nM.
Regarding `C[C@H](Nc1ncnc(N)c1C#N)c1nc2c(S(C)(=O)=O)cccc2n1Cc1ccc(F)cc1` [4-amino-6-(((1S)-1-(1-(4-fluorobenzyl)-4-(methylsulfonyl)-1H-benzimidazol-2-yl)ethyl)amino)-5-pyrimidinecarbonitrile], the Ki is 2410 nM.
For `C[C@H](Nc1ncnc(N)c1C#N)c1nc2cccc(S(C)(=O)=O)c2n1Cc1cc(F)cc(F)c1` [4-amino-6-(((1S)-1-(1-(3,5-difluorobenzyl)-7-(methylsulfonyl)-1H-benzimidazol-2-yl)ethyl)amino)-5-pyrimidinecarbonitrile], the inhibitory constant (Ki) turned out to be 295 nM.
Consider `C[C@H](Nc1ncnc(N)c1C#N)c1nc2cccc(F)c2n1-c1cc(F)cc(F)c1` [4-amino-6-(((1S)-1-(1-(3,5-difluorophenyl)-7-fluoro-1H-benzimidazol-2-yl)ethyl)amino)-5-pyrimidinecarbonitrile], for which the inhibition constant (Ki) was found to be 3.7 nM.
`CC[C@H](Nc1ncnc(N)c1C#N)c1nc2cccc(C(F)(F)F)c2n1CC1CC1` [4-amino-6-(((1S)-1-(1-(cyclopropylmethyl)-7-(trifluoromethyl)-1H-benzimidazol-2-yl)propyl)amino)-5-pyrimidinecarbonitrile]: the Ki is 53.1 nM.
Take `C[C@@H](Nc1ncnc(N)c1C#N)c1nc2cc(F)ccc2n1-c1ccccn1` [4-amino-6-(((1R)-1-(5-fluoro-1-(2-pyridinyl)-1H-benzimidazol-2-yl)ethyl)amino)-5-pyrimidinecarbonitrile]: the Ki is 7 nM.
`C[C@H](Nc1ncnc(N)c1C#N)c1nc2ccc(F)cn2c1-c1cc(F)cc(Cl)c1` [4-amino-6-(((1S)-1-(3-(3-chloro-5-fluorophenyl)-6-fluoroimidazo[1,2-a]pyridin-2-yl)ethyl)amino)-5-pyrimidinecarbonitrile]: the inhibition constant Ki was determined as 8.8 nM.
With `C[C@@H](Nc1ncnc(N)c1C#N)c1nc2cc(F)ccc2n1-c1cncc(F)c1` [4-amino-6-(((1R)-1-(5-fluoro-1-(5-fluoro-3-pyridinyl)-1H-benzimidazol-2-yl)ethyl)amino)-5-pyrimidinecarbonitrile] the figure was 2820 nM; with `CNC(=O)c1cccc2nc([C@H](C)Nc3ncnc(N)c3C#N)c(-c3cncc(F)c3)n12` [2-((1S)-1-((6-amino-5-cyano-4-pyrimidinyl)amino)ethyl)-3-(5-fluoro-3-pyridinyl)-N-methylimidazo[1,2-a]pyridine-5-carboxamide], 81.1 nM.
For `CNC(=O)c1cccc2nc([C@@H](C)Nc3ncnc(N)c3C#N)n(-c3cncc(F)c3)c12` [2-((1R)-1-((6-amino-5-cyano-4-pyrimidinyl)amino)ethyl)-1-(5-fluoro-3-pyridinyl)-N-methyl-1H-benzimidazole-7-carboxamide] the value was 1370 nM.
Take `C[C@H](Nc1ncnc(N)c1C#N)c1nc2cccc(C(=O)NC(C)(C)C)c2n1C1CC1` [2-((1S)-1-((6-amino-5-cyano-4-pyrimidinyl)amino)ethyl)-N-tert-butyl-1-cyclopropyl-1H-benzimidazole-7-carboxamide]: the Ki is 73.8 nM.
Take `C[C@H](Nc1ncnc2[nH]cnc12)c1nc2ccc(Cl)cc2n1-c1cc(F)cc(F)c1` [N-((1S)-1-(6-chloro-1-(3,5-difluorophenyl)-1H-benzimidazol-2-yl)ethyl)-9H-purin-6-amine]: the Ki stood at 8.4 nM.
`C[C@H](Nc1ncnc(N)c1C#N)c1nc2ccc(Cl)cc2n1-c1cc(F)cc(F)c1` [4-amino-6-(((1S)-1-(6-chloro-1-(3,5-difluorophenyl)-1H-benzimidazol-2-yl)ethyl)amino)-5-pyrimidinecarbonitrile]: the Ki was found to be 2.7 nM.
For `C[C@H](Nc1ncnc(N)c1C#N)c1nc2cccnn2c1-c1ccccn1` [4-amino-6-(((1S)-1-(3-(2-pyridinyl)imidazo[1,2-b]pyridazin-2-yl)ethyl)amino)-5-pyrimidinecarbonitrile], the Ki was found to be 2010 nM.
Regarding `C[C@H](Nc1ncnc(N)c1C#N)c1nc2cccc(S(C)(=O)=O)c2n1C1CC1` [4-amino-6-(((1S)-1-(1-cyclopropyl-7-(methylsulfonyl)-1H-benzimidazol-2-yl)ethyl)amino)-5-pyrimidinecarbonitrile], the Ki turned out to be 2.83 nM.
As for `C[C@@H](Nc1ncnc(N)c1C#N)c1nc2ccc(F)cc2n1-c1cncc(NS(C)(=O)=O)c1` [N-(5-(2-((1R)-1-((6-amino-5-cyano-4-pyrimidinyl)amino)ethyl)-6-fluoro-1H-benzimidazol-1-yl)-3-pyridinyl)methanesulfonamide], the Ki came to 600 nM.
For `C[C@H](Nc1ncnc(N)c1C#N)c1nc2ncccc2n1-c1ccccn1` [4-amino-6-(((1S)-1-(1-(2-pyridinyl)-1H-imidazo[4,5-b]pyridin-2-yl)ethyl)amino)-5-pyrimidinecarbonitrile], the Ki stood at 1620 nM.
On to `C[C@H](Nc1ncnc(N)c1C#N)c1nc2c(F)cc(F)cc2n1-c1cc(F)cc(F)c1` [4-amino-6-(((1S)-1-(1-(3,5-difluorophenyl)-4,6-difluoro-1H-benzimidazol-2-yl)ethyl)amino)-5-pyrimidinecarbonitrile], for which the Ki came out at 2.6 nM.
Consider `COC(=O)c1cccc2nc([C@H](C)Nc3ncnc(N)c3C#N)c(-c3cccnc3)n12` [methyl 2-((1S)-1-((6-amino-5-cyano-4-pyrimidinyl)amino)ethyl)-3-(3-pyridinyl)imidazo[1,2-a]pyridine-5-carboxylate], for which the inhibition constant Ki was determined as 147 nM.
As to `C[C@H](Nc1ncnc(N)c1C#N)c1nc2c(F)cccc2n1-c1cc(F)cc(F)c1` [4-amino-6-(((1S)-1-(1-(3,5-difluorophenyl)-4-fluoro-1H-benzimidazol-2-yl)ethyl)amino)-5-pyrimidinecarbonitrile], the Ki was 6.4 nM and 2.1 nM.
